According to BigSolDB 2.1:

Cc1nc2n(c(=O)c1CCN1CCC(c3noc4cc(F)ccc34)CC1)CCCC2O (stereo not given)
solubility (mole fraction)
Conditions | 288.15 K | 293.15 K | 298.15 K | 303.15 K | 308.15 K | 313.15 K | 318.15 K | 323.15 K | 328.15 K
in 1,4-dioxane | 0.00042 | 0.000595 | 0.000832 | 0.00115 | 0.00159 | 0.00214 | 0.00292 | 0.00382 | 0.00495
in THF | 0.000399 | 0.00055 | 0.000757 | 0.00101 | 0.00134 | 0.00177 | 0.00232 | 0.00312 | 0.00391
in acetone | 6.42e-05 | 8.92e-05 | 0.000126 | 0.000171 | 0.000233 | 0.000314 | 0.000438 | 0.000556 | 0.000702
in acetonitrile | 2.45e-05 | 3.58e-05 | 5.16e-05 | 7.32e-05 | 0.000101 | 0.000143 | 0.000195 | 0.000263 | 0.00035
in ethanol | 6.58e-05 | 9.25e-05 | 0.000129 | 0.000178 | 0.000236 | 0.000338 | 0.00045 | 0.00059 | 0.00079
in ethyl acetate | 5.95e-05 | 8.43e-05 | 0.000118 | 0.000164 | 0.000225 | 0.000311 | 0.000415 | 0.00056 | 0.000742
in isopropanol | 2.65e-05 | 3.97e-05 | 5.8e-05 | 8.16e-05 | 0.00013 | 0.000179 | 0.000269 | 0.000363 | 0.000502
in methanol | 0.000103 | 0.000143 | 0.000192 | 0.00026 | 0.000347 | 0.000463 | 0.000618 | 0.000815 | 0.00105
in methyl acetate | 7.29e-05 | 0.000101 | 0.000141 | 0.000196 | 0.000266 | 0.000361 | 0.000503 | 0.000643 | 0.000814
in n-butanol | 8.99e-05 | 0.000128 | 0.000179 | 0.000249 | 0.000347 | 0.000443 | 0.000587 | 0.000829 | 0.00115
in n-butyl acetate | 5.19e-05 | 7.43e-05 | 0.000105 | 0.000147 | 0.000204 | 0.000282 | 0.000381 | 0.000514 | 0.000692
in n-hexanol | 7.11e-05 | 0.00012 | 0.000175 | 0.000244 | 0.000332 | 0.000465 | 0.000682 | 0.000958 | 0.00125
in n-pentanol | 9.07e-05 | 0.000129 | 0.000184 | 0.000258 | 0.000364 | 0.000553 | 0.000742 | 0.000963 | 0.00128
in n-propanol | 7.03e-05 | 0.000102 | 0.000133 | 0.000214 | 0.000298 | 0.000391 | 0.00056 | 0.000768 | 0.00107
in n-propyl acetate | 5.47e-05 | 7.82e-05 | 0.000111 | 0.000155 | 0.000214 | 0.000294 | 0.000398 | 0.000537 | 0.000728
